Reference: patent US11932658B2 (BRISTOL-MYERS SQUIBB COMPANY, priority 2016, dated 2024)

Molecular target: T1, PAR4 (Homo sapiens, UniProt Q96RI0)
T1 construct: expressed in transfected cells; host or cells: HEK293 PAR4 Clone 1.2A (BMS Arctic ID 383940)
T1 sequence (Q96RI0 18-385): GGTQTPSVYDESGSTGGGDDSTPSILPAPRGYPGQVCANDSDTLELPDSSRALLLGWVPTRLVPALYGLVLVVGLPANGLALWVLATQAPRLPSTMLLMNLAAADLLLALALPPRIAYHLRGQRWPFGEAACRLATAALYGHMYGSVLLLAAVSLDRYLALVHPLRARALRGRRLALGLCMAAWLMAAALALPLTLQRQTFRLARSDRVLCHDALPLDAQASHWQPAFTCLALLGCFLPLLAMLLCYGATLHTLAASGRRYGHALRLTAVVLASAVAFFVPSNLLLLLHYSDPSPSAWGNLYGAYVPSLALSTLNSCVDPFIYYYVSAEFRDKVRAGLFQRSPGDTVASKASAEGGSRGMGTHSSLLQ
Experiment: PAR4 FLIPR assay (antagonism of agonist peptide-induced calcium mobilization)
Type: cell-based
Description: The FLIPR assay is an exemplary in vitro assay for measuring the activity of the PAR4 antagonists of the present invention. In this assay, intracellular calcium mobilization is induced in PAR4 expressing cells by a PAR4 agonist and calcium mobilization is monitored.
HEK293 cells stably expressing PAR4 were generated by a standard method of transfection of human PAR4 (F2R23) cDNA expression vector and selected based on PAR4 protein expression or mRNA expression. […] These cells also express endogenous PAR1 and can elicit calcium signal upon stimulation with PAR1 agonist peptide. Therefore, the same cells were also used to determine selectivity against PAR1 and agonist activity for both receptors. Cells from HEK293 PAR4 Clone 1.2A (BMS Arctic ID 383940) were propagated and used for calcium mobilization studies.
FLIPR-based calcium mobilization assay in HEK293 cells was used to measure PAR4 antagonism, agonism, and selectivity against PAR1. The activity of the PAR4 antagonists of the present invention were tested in PAR4 expressing cells by monitoring H-Ala-Phe(4-F)-Pro-Gly-Trp-Leu-Val-Lys-Asn-Gy-NH2-induced intracellular calcium mobilization. Counter screens for agonist activity and PAR1 antagonist activity were also performed. Briefly, PAR1/PAR4-expressing HEK293 cells were grown in DMEM (Life Technology, Grand Island, NY) containing 10% heat-inactivated FBS, 1% Penicillin-Streptomycin, 10 μg/mL blasticidin, and 100 μg/mL Zeocin at 37° C. with 5% CO2. Cells were plated overnight prior to the experiment in a black 384-well Purecoat Amine clear bottom plate (Becton Dickinson Biosciences, San Jose, CA) at 10,000 cells/well in 30 μL growth medium and incubated in a humidified chamber at 37° C. with 5% CO2 overnight. Prior to compound addition, the cell medium was replaced with 40 μL of 1× calcium and magnesium-containing Hank's Balanced Saline Solution (HBSS) (with 20 mM HEPES) and 1:1000 diluted fluorescent calcium indicator (Codex Biosolutions, Gaithersburg, MD). After a 30 minute incubation period at 37° C. and a further 30 minute incubation and equilibration period at room temperature, 20 μL test compound (diluted in 1×HBSS buffer) was added at various concentrations at 0.17% dimethyl sulfoxide (DMSO) final concentration. Changes in fluorescence intensity were measured using a Functional Drug Screening System (FDSS, Hamamatsu, Japan) to determine agonist activities. The cells were then incubated for 30 minutes at room temperature followed by addition of 20 μL of agonist peptide for antagonist activity measurement. […] Compound potency was derived from 11-point concentration-response curves.

| IC50 [nM] | SMILES |
| --- | --- |
| 3.2 | COc1cnc2c(-c3cc4c5c(cc(C)c4o3)O[C@@H](COC(=O)Nc3ccnc(C)c3)CO5)cc(C)cc2n1 [Example 15, (R)-(8-(2-methoxy-7-methylquinoxalin-5-yl)-6-methyl-2,3-dihydro-[1,4]dioxino[2,3-e]benzofuran-3-yl)methyl (2-methylpyridin-4-yl)carbamate] |
| 3 | COc1ccc(NC(=O)OC[C@H]2COc3c(cc(C)c4oc(-c5cc(C)cc6nc(OC)cnc56)cc34)O2)cn1 [Example 16, (R)-(8-(2-methoxy-7-methylquinoxalin-5-yl)-6-methyl-2,3-dihydro-[1,4]dioxino[2,3-e]benzofuran-3-yl)methyl (6-methoxypyridin-3-yl)carbamate] |
| 3.1 | COc1ccc(NC(=O)OCC2Cc3c(cc(Cl)c4nc(-c5cc(C)cc6nc(OC)cnc56)sc34)O2)cn1 (centres unmarked) [Example 17, (4-chloro-2-(2-methoxy-7-methylquinoxalin-5-yl)-7,8-dihydrobenzofuro[5,4-d]thiazol-7-yl)methyl (6-methoxypyridin-3-yl)carbamate] |
| 5.7 | COc1cnc2c(-c3nc4c(Cl)cc5c(c4s3)CC(COC(=O)Nc3cccnc3)O5)cc(C)cc2n1 (centres unmarked) [Example 18, (4-chloro-2-(2-methoxy-7-methylquinoxalin-5-yl)-7,8-dihydrobenzofuro[5,4-d]thiazol-7-yl)methyl pyridin-3-ylcarbamate] |
| 2.6 | COc1cnc2c(-c3nc4c(Cl)cc5c(c4s3)CC(COC(=O)Nc3ccc(C)nc3)O5)cc(C)cc2n1 (centres unmarked) [Example 19, (4-chloro-2-(2-methoxy-7-methylquinoxalin-5-yl)-7,8-dihydrobenzofuro[5,4-d]thiazol-7-yl)methyl (6-methylpyridin-3-yl)carbamate] |
| 10 | Cc1cc(-c2nc3c(F)cc4c(c3s2)OCC(CNC(=O)OC(C)(C)C)O4)c2ncc(OC(F)F)nc2c1 (centres unmarked) [Example 21, tert-butyl ((2-(2-(difluoromethoxy)-7-methylquinoxalin-5-yl)-4-fluoro-7,8-dihydro-[1,4]dioxino[2′,3′:3,4]benzo[1,2-d]thiazol-7-yl)methyl)carbamate] |
| 8.8 | Cc1cc(-c2nc3c(F)cc4c(c3s2)OC(CO)CO4)c2ncc(OC(F)F)nc2c1 (centres unmarked) [Example 22, (2-(2-(difluoromethoxy)-7-methylquinoxalin-5-yl)-4-fluoro-7,8-dihydro-[1,4]dioxino[2′,3′:3,4]benzo[1,2-d]thiazol-8-yl)methanol] |
| 9.4 | Cc1cc(-c2nc3c(F)cc4c(c3s2)OC(CNC(=O)OC(C)(C)C)CO4)c2ncc(OC(F)F)nc2c1 (centres unmarked) [Example 23, tert-butyl ((2-(2-(difluoromethoxy)-7-methylquinoxalin-5-yl)-4-fluoro-7,8-dihydro-[1,4]dioxino[2′,3′:3,4]benzo[1,2-d]thiazol-8-yl)methyl)carbamate] |
| 9 | COc1cnc2c(-c3nc4c(F)cc5c(c4s3)OC(COC(=O)Nc3ccccc3)CO5)cc(C)cc2n1 (centres unmarked) [Example 24, (4-fluoro-2-(2-methoxy-7-methylquinoxalin-5-yl)-7,8-dihydro-[1,4]dioxino[2′,3′:3,4]benzo[1,2-d]thiazol-8-yl)methyl phenylcarbamate] |
| 25 | COc1cnc2c(-c3nc4c(Cl)cc5c(c4s3)OC[C@H](COC(=O)Nc3cncc(Cl)c3)O5)cc(C)cc2n1 [Example 25, (R)-(4-chloro-2-(2-methoxy-7-methylquinoxalin-5-yl)-7,8-dihydro-[1,4]dioxino[2′,3′:3,4]benzo[1,2-d]thiazol-7-yl)methyl (5-chloropyridin-3-yl)carbamate] |
| 10 | COc1cnc2c(-c3nc4c(Cl)cc5c(c4s3)OC[C@H](COC(=O)Nc3ccccc3)O5)cc(C)cc2n1 [Example 26, (R)-(4-chloro-2-(2-methoxy-7-methylquinoxalin-5-yl)-7,8-dihydro-[1,4]dioxino[2′,3′:3,4]benzo[1,2-d]thiazol-7-yl)methyl phenylcarbamate] |
